Test results from ChEMBL document CHEMBL1140390, “ERbeta ligands. Part 4: Synthesis and structure-activity relationships of a series of 2-phenylquinoline derivatives” (Bioorg Med Chem Lett, 2005).

How the values were obtained:
[1] = target: Estrogen receptor beta (Homo sapiens, UniProt Q92731)
Description: Binding affinity for human Estrogen receptor beta

[2] = target: T1, Estrogen receptor (Homo sapiens, UniProt P03372)
T1 sequence (P03372 whole entry): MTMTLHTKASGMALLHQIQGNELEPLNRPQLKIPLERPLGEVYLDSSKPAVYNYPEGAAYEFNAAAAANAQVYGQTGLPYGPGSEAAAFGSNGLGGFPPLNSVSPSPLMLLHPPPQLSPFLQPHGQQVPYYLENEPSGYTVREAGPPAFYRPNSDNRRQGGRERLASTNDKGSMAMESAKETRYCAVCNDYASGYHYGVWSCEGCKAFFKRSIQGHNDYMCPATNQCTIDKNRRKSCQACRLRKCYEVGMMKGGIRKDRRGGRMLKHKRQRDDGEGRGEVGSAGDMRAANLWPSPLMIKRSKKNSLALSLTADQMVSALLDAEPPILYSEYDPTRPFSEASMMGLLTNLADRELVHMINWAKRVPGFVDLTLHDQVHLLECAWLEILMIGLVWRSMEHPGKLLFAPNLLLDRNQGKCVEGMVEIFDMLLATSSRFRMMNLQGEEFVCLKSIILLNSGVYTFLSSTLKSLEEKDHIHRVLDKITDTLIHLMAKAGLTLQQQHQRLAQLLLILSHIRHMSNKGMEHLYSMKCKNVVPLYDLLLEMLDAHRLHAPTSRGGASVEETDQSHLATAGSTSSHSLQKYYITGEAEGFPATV
Description: Binding affinity for human Estrogen receptor alpha

Estrogen receptor beta, sequence (Q92731 whole entry): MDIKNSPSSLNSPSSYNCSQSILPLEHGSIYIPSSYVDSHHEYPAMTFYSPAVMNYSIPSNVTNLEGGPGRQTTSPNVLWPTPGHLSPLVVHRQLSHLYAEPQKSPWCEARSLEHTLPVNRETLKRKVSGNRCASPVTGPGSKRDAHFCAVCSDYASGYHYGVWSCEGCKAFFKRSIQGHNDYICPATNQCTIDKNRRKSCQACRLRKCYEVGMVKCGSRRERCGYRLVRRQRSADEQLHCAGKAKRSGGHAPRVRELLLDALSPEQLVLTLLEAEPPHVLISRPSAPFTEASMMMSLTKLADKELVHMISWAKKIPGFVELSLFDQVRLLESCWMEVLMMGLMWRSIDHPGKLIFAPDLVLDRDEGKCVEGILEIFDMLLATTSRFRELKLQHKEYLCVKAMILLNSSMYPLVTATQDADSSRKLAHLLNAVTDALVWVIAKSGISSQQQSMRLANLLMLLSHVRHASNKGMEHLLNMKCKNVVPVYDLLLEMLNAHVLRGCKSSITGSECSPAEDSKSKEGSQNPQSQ

| SMILES | IC50 [1] [nM] | IC50 [2] [nM] |
| --- | --- | --- |
| Oc1ccc2nc(-c3ccc(O)c(F)c3)cc(-c3ccccc3)c2c1 | 211 | 1810 |
| CC(=O)c1cc(-c2ccc(O)cc2)nc2ccc(O)cc12 | 221 | 3140 |
| Oc1ccc(-c2ccc3c(Br)c(O)ccc3n2)cc1 | 88 | 1140 |
| Oc1ccc(-c2ccc3cc(O)ccc3n2)cc1 | 171 | 1780 |
| CC(O)c1cc(-c2ccc(O)c(F)c2)nc2ccc(O)cc12 (stereo not drawn) | > 5000 | > 5000 |

Stronger by IC50 [1], values ahead:

| IC50 [1] [nM] | IC50 [2] [nM] | SMILES |
| --- | --- | --- |
| 27 | 1310 | C#Cc1cc(-c2ccc(O)c(F)c2)nc2ccc(O)cc12 |
| 36 | 783 | Oc1ccc2nc(-c3cc(F)c(O)c(F)c3)cc(Br)c2c1 |
| 44 | 385 | C=Cc1cc(-c2ccc(O)c(F)c2)nc2ccc(O)cc12 |
| 79 | 1750 | CCc1cc(-c2ccc(O)c(F)c2)nc2ccc(O)cc12 |
| 52 | 634 | CCc1cc(-c2ccc(O)cc2)nc2ccc(O)cc12 |
| 30 | 632 | Oc1ccc(-c2ccc3c(Cl)c(O)ccc3n2)cc1 |
| 75 |  | C#Cc1cc(-c2ccc(O)cc2)nc2ccc(O)cc12 |
